The kinase profiling compilation of Christmann-Franck et al. (2016)

Experiments:
Assay in all cases: radiometric filter-binding kinase assay, Kinase HotSpot
Details in all cases: compound 0.5 µM; ATP 10 µM
MAPK1 (human) = MAPK1 (human) (UniProt P28482)
MKNK2 (human) = MKNK2 (human) (UniProt Q9HBH9)
GRK4 (human) = GRK4 (human) (UniProt P32298)
DYRK3 (human) = DYRK3 (human) (UniProt O43781)
NEK9 (human) = NEK9 (human) (UniProt Q8TD19)
EPHA2 (human) = EPHA2 (human) (UniProt P29317)
ROCK1 (human) = ROCK1 (human) (UniProt Q13464)
PAK4 (human) = PAK4 (human) (UniProt O96013)
INSR (human) = INSR (human) (UniProt P06213)
SGK3 (human) = SGK3 (human) (UniProt Q96BR1)
MARK2 (human) = MARK2 (human) (UniProt Q7KZI7)
SRPK2 (human) = SRPK2 (human) (UniProt P78362)
CAMKK1 (human) = CAMKK1 (human) (UniProt Q8N5S9)
ADRBK2 (human) = ADRBK2 (human) (UniProt P35626)
CDK1 CCNB1 (human) = CDK1 CCNB1 (human) (UniProt P06493+P14635)
INSRR (human) = INSRR (human) (UniProt P14616)
CAMK4 (human) = CAMK4 (human) (UniProt Q16566)
CAMK4 (human), sequence (Q16566 whole entry, looked up): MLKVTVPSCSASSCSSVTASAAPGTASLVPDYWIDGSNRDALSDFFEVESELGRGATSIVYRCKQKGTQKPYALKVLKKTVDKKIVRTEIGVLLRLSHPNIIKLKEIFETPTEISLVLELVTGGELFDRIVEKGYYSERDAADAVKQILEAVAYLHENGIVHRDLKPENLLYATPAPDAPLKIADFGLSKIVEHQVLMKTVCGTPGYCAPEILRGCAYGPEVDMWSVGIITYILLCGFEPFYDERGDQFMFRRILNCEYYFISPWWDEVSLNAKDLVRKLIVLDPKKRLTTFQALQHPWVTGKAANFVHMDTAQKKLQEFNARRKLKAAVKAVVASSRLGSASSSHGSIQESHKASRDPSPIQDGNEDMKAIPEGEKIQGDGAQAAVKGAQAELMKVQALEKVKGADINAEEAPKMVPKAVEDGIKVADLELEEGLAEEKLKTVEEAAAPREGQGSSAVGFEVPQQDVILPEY

MERTK (human) = MERTK (human) (UniProt Q12866)
MYLK (human) = MYLK (human) (UniProt Q15746)
RET (human) = RET (human) (UniProt P07949)
RAF1 (human) = RAF1 (human) (UniProt P04049)
CSNK2A1 (human) = CSNK2A1 (human) (UniProt P68400)
CSNK2A1 (human), sequence (P68400 whole entry, looked up): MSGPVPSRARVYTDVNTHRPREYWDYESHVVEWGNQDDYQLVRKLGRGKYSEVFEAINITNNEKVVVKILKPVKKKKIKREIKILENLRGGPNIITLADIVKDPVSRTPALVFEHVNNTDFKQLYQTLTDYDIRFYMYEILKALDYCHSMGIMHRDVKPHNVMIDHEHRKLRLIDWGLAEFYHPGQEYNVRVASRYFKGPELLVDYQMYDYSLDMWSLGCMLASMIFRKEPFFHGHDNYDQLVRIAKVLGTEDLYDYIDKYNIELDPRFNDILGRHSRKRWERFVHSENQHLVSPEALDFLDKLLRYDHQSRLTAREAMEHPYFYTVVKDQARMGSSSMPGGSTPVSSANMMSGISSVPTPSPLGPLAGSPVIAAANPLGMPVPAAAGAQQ

NLK (human) = NLK (human) (UniProt Q9UBE8)
PRKCG (human) = PRKCG (human) (UniProt P05129)
CAMK2A (human) = CAMK2A (human) (UniProt Q9UQM7)
CAMK2A (human), sequence (Q9UQM7 whole entry, looked up): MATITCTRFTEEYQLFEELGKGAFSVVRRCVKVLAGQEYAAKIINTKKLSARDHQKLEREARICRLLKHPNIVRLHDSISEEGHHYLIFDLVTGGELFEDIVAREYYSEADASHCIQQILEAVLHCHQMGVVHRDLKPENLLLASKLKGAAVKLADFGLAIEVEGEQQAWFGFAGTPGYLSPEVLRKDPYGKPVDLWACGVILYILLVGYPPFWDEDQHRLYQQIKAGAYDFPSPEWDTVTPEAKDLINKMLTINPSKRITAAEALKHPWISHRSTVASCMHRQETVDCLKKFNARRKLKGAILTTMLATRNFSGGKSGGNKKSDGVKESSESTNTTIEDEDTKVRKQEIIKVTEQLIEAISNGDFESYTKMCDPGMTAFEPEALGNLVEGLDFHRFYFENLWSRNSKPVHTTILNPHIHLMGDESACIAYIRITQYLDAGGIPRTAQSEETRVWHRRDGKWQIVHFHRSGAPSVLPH

MAPKAPK2 (human) = MAPKAPK2 (human) (UniProt P49137)
MYLK2 (human) = MYLK2 (human) (UniProt Q9H1R3)
PIM3 (human) = PIM3 (human) (UniProt Q86V86)
PAK2 (human) = PAK2 (human) (UniProt Q13177)
TTK (human) = TTK (human) (UniProt P33981)
TAOK3 (human) = TAOK3 (human) (UniProt Q9H2K8)
PTK6 (human) = PTK6 (human) (UniProt Q13882)
PTK6 (human), sequence (Q13882 whole entry, looked up): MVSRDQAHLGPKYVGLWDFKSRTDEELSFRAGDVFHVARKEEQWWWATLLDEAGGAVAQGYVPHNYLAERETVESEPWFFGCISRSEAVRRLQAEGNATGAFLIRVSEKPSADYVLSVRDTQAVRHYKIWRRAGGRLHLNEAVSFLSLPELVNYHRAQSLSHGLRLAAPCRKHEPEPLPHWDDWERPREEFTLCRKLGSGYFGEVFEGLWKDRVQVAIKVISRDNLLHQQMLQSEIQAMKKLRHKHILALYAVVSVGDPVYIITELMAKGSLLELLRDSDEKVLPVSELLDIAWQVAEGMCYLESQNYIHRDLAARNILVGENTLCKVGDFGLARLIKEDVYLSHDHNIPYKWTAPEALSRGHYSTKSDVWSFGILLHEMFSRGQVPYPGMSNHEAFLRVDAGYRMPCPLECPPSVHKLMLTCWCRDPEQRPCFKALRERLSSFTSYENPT

STK17A (human) = STK17A (human) (UniProt Q9UEE5)
STK17A (human), sequence (Q9UEE5 whole entry, looked up): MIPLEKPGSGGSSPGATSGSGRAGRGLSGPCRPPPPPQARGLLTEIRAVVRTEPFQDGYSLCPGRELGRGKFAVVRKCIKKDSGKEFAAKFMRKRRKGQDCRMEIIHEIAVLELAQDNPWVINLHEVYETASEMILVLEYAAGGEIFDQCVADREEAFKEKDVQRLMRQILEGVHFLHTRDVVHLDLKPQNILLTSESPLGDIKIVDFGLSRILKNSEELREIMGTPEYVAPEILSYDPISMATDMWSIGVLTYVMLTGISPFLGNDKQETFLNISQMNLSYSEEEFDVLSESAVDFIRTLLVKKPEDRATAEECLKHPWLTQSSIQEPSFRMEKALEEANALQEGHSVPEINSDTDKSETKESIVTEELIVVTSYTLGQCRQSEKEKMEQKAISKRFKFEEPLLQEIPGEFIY

EPHA3 (human) = EPHA3 (human) (UniProt P29320)
EPHA3 (human), sequence (P29320 whole entry, looked up): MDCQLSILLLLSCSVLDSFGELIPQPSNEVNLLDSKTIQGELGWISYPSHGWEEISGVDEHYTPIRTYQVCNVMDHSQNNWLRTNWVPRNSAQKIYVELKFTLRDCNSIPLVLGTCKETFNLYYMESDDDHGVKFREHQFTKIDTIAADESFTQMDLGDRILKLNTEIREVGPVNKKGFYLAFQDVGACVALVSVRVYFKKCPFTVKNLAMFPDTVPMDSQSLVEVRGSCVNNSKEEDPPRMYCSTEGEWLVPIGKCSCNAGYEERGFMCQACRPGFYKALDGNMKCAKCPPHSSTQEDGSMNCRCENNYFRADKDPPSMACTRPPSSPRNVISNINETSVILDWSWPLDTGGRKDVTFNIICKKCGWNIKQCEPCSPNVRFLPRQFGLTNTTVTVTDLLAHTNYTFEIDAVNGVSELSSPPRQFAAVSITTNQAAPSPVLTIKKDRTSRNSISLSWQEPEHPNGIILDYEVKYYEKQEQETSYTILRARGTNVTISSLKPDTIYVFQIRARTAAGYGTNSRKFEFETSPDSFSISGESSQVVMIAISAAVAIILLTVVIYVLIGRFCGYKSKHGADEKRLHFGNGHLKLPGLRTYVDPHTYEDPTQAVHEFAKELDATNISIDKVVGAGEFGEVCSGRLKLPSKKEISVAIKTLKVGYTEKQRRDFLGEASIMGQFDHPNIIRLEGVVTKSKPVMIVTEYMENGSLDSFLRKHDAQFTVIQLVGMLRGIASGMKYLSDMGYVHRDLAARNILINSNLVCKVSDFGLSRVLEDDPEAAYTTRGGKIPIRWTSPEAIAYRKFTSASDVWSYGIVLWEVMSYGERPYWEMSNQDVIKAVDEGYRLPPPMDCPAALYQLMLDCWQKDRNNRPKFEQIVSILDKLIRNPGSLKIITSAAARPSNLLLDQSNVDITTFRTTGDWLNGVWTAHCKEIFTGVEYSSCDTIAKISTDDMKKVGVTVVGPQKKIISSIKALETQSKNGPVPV

NUAK2 (human) = NUAK2 (human) (UniProt Q9H093)
EPHA8 (human) = EPHA8 (human) (UniProt P29322)
EPHA8 (human), sequence (P29322 whole entry, looked up): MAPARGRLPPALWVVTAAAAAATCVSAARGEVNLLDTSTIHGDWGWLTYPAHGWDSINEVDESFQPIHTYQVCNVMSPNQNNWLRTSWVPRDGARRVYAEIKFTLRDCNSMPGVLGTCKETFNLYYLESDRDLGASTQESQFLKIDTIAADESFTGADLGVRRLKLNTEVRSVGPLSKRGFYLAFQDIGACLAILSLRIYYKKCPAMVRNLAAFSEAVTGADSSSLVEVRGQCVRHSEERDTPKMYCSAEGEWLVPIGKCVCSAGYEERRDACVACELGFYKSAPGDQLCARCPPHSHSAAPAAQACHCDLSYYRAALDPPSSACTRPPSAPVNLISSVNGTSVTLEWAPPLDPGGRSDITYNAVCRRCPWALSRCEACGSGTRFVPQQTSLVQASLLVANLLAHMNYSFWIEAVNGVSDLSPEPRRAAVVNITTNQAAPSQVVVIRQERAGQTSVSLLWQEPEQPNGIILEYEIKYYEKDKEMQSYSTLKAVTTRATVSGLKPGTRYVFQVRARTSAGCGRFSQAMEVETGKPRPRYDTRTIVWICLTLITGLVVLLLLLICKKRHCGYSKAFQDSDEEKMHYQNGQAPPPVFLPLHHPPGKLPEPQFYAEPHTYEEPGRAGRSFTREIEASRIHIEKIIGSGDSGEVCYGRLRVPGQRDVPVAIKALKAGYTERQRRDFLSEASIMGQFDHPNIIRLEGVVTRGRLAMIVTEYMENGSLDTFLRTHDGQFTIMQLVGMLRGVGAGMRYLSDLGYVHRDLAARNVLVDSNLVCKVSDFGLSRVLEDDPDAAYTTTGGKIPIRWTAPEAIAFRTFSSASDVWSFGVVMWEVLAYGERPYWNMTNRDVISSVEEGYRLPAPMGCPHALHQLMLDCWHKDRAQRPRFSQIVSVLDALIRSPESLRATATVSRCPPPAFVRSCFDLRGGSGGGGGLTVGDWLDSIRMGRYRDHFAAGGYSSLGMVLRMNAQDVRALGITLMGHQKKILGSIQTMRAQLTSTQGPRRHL

HIPK1 (human) = HIPK1 (human) (UniProt Q86Z02)
ULK2 (human) = ULK2 (human) (UniProt Q8IYT8)
NEK2 (human) = NEK2 (human) (UniProt P51955)
NEK2 (human), sequence (P51955 whole entry, looked up): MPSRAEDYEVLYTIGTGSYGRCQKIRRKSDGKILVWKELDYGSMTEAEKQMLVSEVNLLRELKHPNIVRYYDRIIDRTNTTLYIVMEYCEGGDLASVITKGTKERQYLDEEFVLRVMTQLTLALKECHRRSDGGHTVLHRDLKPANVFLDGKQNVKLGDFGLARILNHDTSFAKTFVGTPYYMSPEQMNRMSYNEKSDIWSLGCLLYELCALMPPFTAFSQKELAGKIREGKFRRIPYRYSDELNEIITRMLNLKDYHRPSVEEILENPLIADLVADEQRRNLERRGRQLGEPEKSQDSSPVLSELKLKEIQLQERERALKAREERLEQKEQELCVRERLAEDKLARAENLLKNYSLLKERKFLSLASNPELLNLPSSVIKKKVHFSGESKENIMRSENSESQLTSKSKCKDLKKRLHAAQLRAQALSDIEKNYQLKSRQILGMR

PAK1 (human) = PAK1 (human) (UniProt Q13153)
RPS6KA1 KD1 KD2 (human) = RPS6KA1 KD1 KD2 (human) (UniProt Q15418)
FGFR2 (human) = FGFR2 (human) (UniProt P21802)

For `CCn1cnc2c(Nc3cccc(Cl)c3)nc(N[C@@H]3CCCC[C@@H]3N)nc21`, which residual activity (MAPK1 (human)) is on record?
The residual activity was 91.7%.

What about the residual activity (MKNK2 (human)) of the same compound?
Its residual activity is 93.5%.

What about the residual activity (GRK4 (human)) of the same compound?
The residual activity was 96.2%.

What about the residual activity (DYRK3 (human)) of the same compound?
The residual activity was 83.7%.

And the residual activity (NEK9 (human))?
Its residual activity is 95.4%.

And the residual activity (EPHA2 (human))?
Its residual activity is 86.7%.

And the residual activity (ROCK1 (human))?
Its residual activity is 96.5%.

What about the residual activity (PAK4 (human)) of the same compound?
Its residual activity is 84.5%.

And the residual activity (INSR (human))?
Its residual activity is 91.3%.

What about the residual activity (SGK3 (human)) of the same compound?
Its residual activity is 94.3%.

And the residual activity (MARK2 (human))?
Its residual activity is 90.1%.

And the residual activity (SRPK2 (human))?
The residual activity was 80.7%.

And the residual activity (CAMKK1 (human))?
Its residual activity is 107%.

What about the residual activity (ADRBK2 (human)) of the same compound?
The residual activity was 89.2%.

And the residual activity (CDK1 CCNB1 (human))?
The residual activity was 16.4%.

And the residual activity (INSRR (human))?
Its residual activity is 90.7%.

And the residual activity (CAMK4 (human))?
The residual activity was 103%.

What about the residual activity (MERTK (human)) of the same compound?
Its residual activity is 76.2%.

And the residual activity (MYLK (human))?
The residual activity was 91%.

What about the residual activity (RET (human)) of the same compound?
The residual activity was 69.3%.

What about the residual activity (RAF1 (human)) of the same compound?
Its residual activity is 92.8%.

What about the residual activity (CSNK2A1 (human)) of the same compound?
Its residual activity is 84.2%.

What about the residual activity (NLK (human)) of the same compound?
The residual activity was 90.8%.

What about the residual activity (PRKCG (human)) of the same compound?
The residual activity was 95%.

What about the residual activity (CAMK2A (human)) of the same compound?
The residual activity was 96.5%.

And the residual activity (MAPKAPK2 (human))?
The residual activity was 94.9%.

What about the residual activity (MYLK2 (human)) of the same compound?
The residual activity was 95.2%.

And the residual activity (PIM3 (human))?
Its residual activity is 34.7%.

And the residual activity (PAK2 (human))?
The residual activity was 93.9%.

And the residual activity (TTK (human))?
The residual activity was 99.7%.

What about the residual activity (TAOK3 (human)) of the same compound?
The residual activity was 104%.

What about the residual activity (PTK6 (human)) of the same compound?
Its residual activity is 82.1%.

And the residual activity (STK17A (human))?
Its residual activity is 98.4%.

What about the residual activity (EPHA3 (human)) of the same compound?
The residual activity was 85.7%.

What about the residual activity (NUAK2 (human)) of the same compound?
The residual activity was 93.7%.

What about the residual activity (EPHA8 (human)) of the same compound?
The residual activity was 93%.

What about the residual activity (HIPK1 (human)) of the same compound?
Its residual activity is 97.5%.

And the residual activity (ULK2 (human))?
Its residual activity is 94.2%.

And the residual activity (NEK2 (human))?
The residual activity was 100%.

And the residual activity (PAK1 (human))?
Its residual activity is 88.8%.

What does the source list for `Cn1sc(=O)n(Cc2ccccc2)c1=O`?
residual activity (MAPK1 (human)): 93.1%; residual activity (MKNK2 (human)): 92.1%; residual activity (GRK4 (human)): 101%; residual activity (DYRK3 (human)): 108%; residual activity (NEK9 (human)): 98.2%; residual activity (EPHA2 (human)): 96.5%; residual activity (ROCK1 (human)): 94.6%; residual activity (PAK4 (human)): 104%; residual activity (INSR (human)): 93.7%; residual activity (SGK3 (human)): 102%; residual activity (MARK2 (human)): 118%; residual activity (SRPK2 (human)): 98.1%; residual activity (CAMKK1 (human)): 114%; residual activity (ADRBK2 (human)): 99.6%; residual activity (CDK1 CCNB1 (human)): 95.7%; residual activity (INSRR (human)): 99.3%; residual activity (CAMK4 (human)): 93.2%; residual activity (MERTK (human)): 92.8%; residual activity (MYLK (human)): 94.5%; residual activity (RET (human)): 106%; residual activity (RAF1 (human)): 97.2%; residual activity (CSNK2A1 (human)): 95.4%; residual activity (NLK (human)): 105%; residual activity (PRKCG (human)): 86.6%; residual activity (CAMK2A (human)): 106%; residual activity (MAPKAPK2 (human)): 102%; residual activity (MYLK2 (human)): 101%; residual activity (PIM3 (human)): 120%; residual activity (PAK2 (human)): 104%; residual activity (TTK (human)): 101%; residual activity (TAOK3 (human)): 101%; residual activity (PTK6 (human)): 96.7%; residual activity (STK17A (human)): 101%; residual activity (EPHA3 (human)): 107%; residual activity (NUAK2 (human)): 97.7%; residual activity (EPHA8 (human)): 94.4%; residual activity (HIPK1 (human)): 92.3%; residual activity (RPS6KA1 KD1 KD2 (human)): 97.6%; residual activity (ULK2 (human)): 105%; residual activity (NEK2 (human)): 99.7%; residual activity (PAK1 (human)): 94.1%

How did the residual activity (MAPK1 (human)) turn out when `O=C1Cc2c([nH]c3ccc(Br)cc23)-c2ccccc2N1` was run?
Its residual activity is 90.5%.

What about the residual activity (MKNK2 (human)) of the same compound?
The residual activity was 102%.

And the residual activity (GRK4 (human))?
The residual activity was 97.9%.

What about the residual activity (FGFR2 (human)) of the same compound?
The residual activity was 100%.

And the residual activity (DYRK3 (human))?
Its residual activity is 113%.

And the residual activity (NEK9 (human))?
The residual activity was 94%.

And the residual activity (EPHA2 (human))?
Its residual activity is 98.3%.

What about the residual activity (ROCK1 (human)) of the same compound?
Its residual activity is 96.1%.

And the residual activity (PAK4 (human))?
The residual activity was 92.2%.

What about the residual activity (INSR (human)) of the same compound?
The residual activity was 101%.

And the residual activity (SGK3 (human))?
Its residual activity is 107%.

And the residual activity (MARK2 (human))?
The residual activity was 74.3%.

And the residual activity (SRPK2 (human))?
Its residual activity is 98.9%.

And the residual activity (CAMKK1 (human))?
Its residual activity is 99.8%.

And the residual activity (ADRBK2 (human))?
Its residual activity is 109%.

What about the residual activity (CDK1 CCNB1 (human)) of the same compound?
Its residual activity is 80.6%.

And the residual activity (INSRR (human))?
The residual activity was 95.8%.

What about the residual activity (CAMK4 (human)) of the same compound?
Its residual activity is 98.1%.

And the residual activity (MERTK (human))?
Its residual activity is 89.5%.

What about the residual activity (MYLK (human)) of the same compound?
Its residual activity is 96.3%.

And the residual activity (RET (human))?
The residual activity was 102%.

What about the residual activity (RAF1 (human)) of the same compound?
Its residual activity is 91.5%.

What about the residual activity (CSNK2A1 (human)) of the same compound?
The residual activity was 79.1%.

What about the residual activity (NLK (human)) of the same compound?
Its residual activity is 98.7%.

What about the residual activity (PRKCG (human)) of the same compound?
The residual activity was 93.8%.

What about the residual activity (CAMK2A (human)) of the same compound?
The residual activity was 105%.

What about the residual activity (MAPKAPK2 (human)) of the same compound?
The residual activity was 101%.

What about the residual activity (MYLK2 (human)) of the same compound?
The residual activity was 96.8%.

And the residual activity (PIM3 (human))?
The residual activity was 84.6%.

And the residual activity (PAK2 (human))?
The residual activity was 95.5%.

And the residual activity (TTK (human))?
Its residual activity is 80.9%.

What about the residual activity (TAOK3 (human)) of the same compound?
Its residual activity is 82.8%.

And the residual activity (PTK6 (human))?
Its residual activity is 87.7%.

What about the residual activity (STK17A (human)) of the same compound?
Its residual activity is 102%.

And the residual activity (EPHA3 (human))?
Its residual activity is 96%.

And the residual activity (NUAK2 (human))?
Its residual activity is 71.1%.

What about the residual activity (EPHA8 (human)) of the same compound?
Its residual activity is 101%.

And the residual activity (RPS6KA1 KD1 KD2 (human))?
The residual activity was 90.8%.

What about the residual activity (ULK2 (human)) of the same compound?
The residual activity was 90.1%.

And the residual activity (NEK2 (human))?
Its residual activity is 87.1%.

And the residual activity (PAK1 (human))?
The residual activity was 85%.
